Test results from paper PMC10318527, “Utilization of dietary mixed-linkage β-glucans by the Firmicute Blautia producta” (The Journal of Biological Chemistry, 2023).

How the values were obtained:
[1] = test system: BPGH16 mutant E384A; test: Kinetics of BPGH16 mutant E384A (DNS assay); assay type: biochemical, Blautia producta ATCC 27340
Experimental: The residues R331, L358, E379, D381, E384, W362, and H398 of BpGH16MLG were mutated to Ala by the Q5Site-Directed Mutagenesis Kit (New England Biolabs, UK, catalogue no. E0554S). Wild-type plasmid BpGH16-pET28a(+) was used as a template, and mutagenic forward and reverse primers were developed using NEBaseChanger with subtle modifications (Table S4). A 25 μl PCR cocktail was prepared for mutating each residue. The final concentration of Q5 Hot Start High-Fidelity 2X Master Mix was 1X, each primer was at 0.5 μM, the amount of used template was 20 ng, and the rest of the volume was made up of nuclease-free water. PCR was executed using the following conditions-initial denaturation was performed at 98 °C for 1 min, for each cycle-denaturation, annealing, and extension (72 °C) were set for 10 s, 20 s, and 7 min, respectively. […] The mutant protein was then expressed as per the protocol mentioned earlier, and kinetics were performed with barley β-glucan.
Reactions were performed in 100 μl volume mixture using recombinant enzyme (final concentration at 0.1 mg/ml) in 50 mM sodium phosphate buffer (pH 5.7) at 37 °C for 1 h of incubation. […] Enzymatic assays were determined with 3,5- dinitrosalicylic acid (DNS) assay ([85]). […] Consequently, recorded the developed color spectrophotometrically at 575 nm ([85]). […]

[2] = test system: BPGH16 mutant D381A; test: Kinetics of BPGH16 mutant D381A (DNS assay); assay type: biochemical, Blautia producta ATCC 27340
Experimental: The residues R331, L358, E379, D381, E384, W362, and H398 of BpGH16MLG were mutated to Ala by the Q5Site-Directed Mutagenesis Kit (New England Biolabs, UK, catalogue no. E0554S). Wild-type plasmid BpGH16-pET28a(+) was used as a template, and mutagenic forward and reverse primers were developed using NEBaseChanger with subtle modifications (Table S4). A 25 μl PCR cocktail was prepared for mutating each residue. The final concentration of Q5 Hot Start High-Fidelity 2X Master Mix was 1X, each primer was at 0.5 μM, the amount of used template was 20 ng, and the rest of the volume was made up of nuclease-free water. PCR was executed using the following conditions-initial denaturation was performed at 98 °C for 1 min, for each cycle-denaturation, annealing, and extension (72 °C) were set for 10 s, 20 s, and 7 min, respectively. A total of 25 cycles were performed, and the final extension was for 5 min 5 μl PCR products were loaded on 0.8% agarose gel to conform to the amplification of the mutagenic gene. Ligation of PCR products and cleavage of methylated template DNA was then performed using 5 μl KLD reaction buffer and 1 μl KLD enzyme cocktail at RT for 1 h. It was then transformed into E. coli TOP-10 cells and plasmids were isolated. The obtained plasmids were sequenced to confirm the mutation at the desired location. Once mutation was confirmed in a gene, the mutant plasmid was transformed into Rosetta (DE3) cells for protein expression. The mutant protein was then expressed as per the protocol mentioned earlier, and kinetics were performed with barley β-glucan.
Reactions were performed in 100 μl volume mixture using recombinant enzyme (final concentration at 0.1 mg/ml) in 50 mM sodium phosphate buffer (pH 5.7) at 37 °C for 1 h of incubation. Then, reactions were terminated by boiling for 5 min. Enzymatic assays were determined with 3,5- dinitrosalicylic acid (DNS) assay ([85]). In brief, 0.05 g Na2SO3 and 1 g DNS were mixed in a 50 ml water-containing reagent bottle and stirred about 6 h using a magnetic stirrer. After that, 200 μl phenol was added and made up to 100 ml. A working solution of DNS was prepared by adding 50 μl glucose (20% (w/v) stock) in prepared 100 ml of reagent mixtures and immediately used for experiments without adding NaOH. 80 μl DNS reagent was added to the reaction mixtures and incubated at 100 °C for 10 min, followed by ice-cooling for 10 min. Consequently, recorded the developed color spectrophotometrically at 575 nm ([85]). A standard curve generated by different concentrations of maltose was used for determining released reducing sugars in each case.

[3] = target: T1, BpGH94MLG (Blautia producta, UniProt A0A7G5MNS2); test: Phosphorolysis activity of BpGH94MLG on substrates (TLC); assay type: biochemical, Blautia producta ATCC 27340; settings: inorganic phosphate, 37 °C
T1 sequence (A0A7G5MNS2 1-804): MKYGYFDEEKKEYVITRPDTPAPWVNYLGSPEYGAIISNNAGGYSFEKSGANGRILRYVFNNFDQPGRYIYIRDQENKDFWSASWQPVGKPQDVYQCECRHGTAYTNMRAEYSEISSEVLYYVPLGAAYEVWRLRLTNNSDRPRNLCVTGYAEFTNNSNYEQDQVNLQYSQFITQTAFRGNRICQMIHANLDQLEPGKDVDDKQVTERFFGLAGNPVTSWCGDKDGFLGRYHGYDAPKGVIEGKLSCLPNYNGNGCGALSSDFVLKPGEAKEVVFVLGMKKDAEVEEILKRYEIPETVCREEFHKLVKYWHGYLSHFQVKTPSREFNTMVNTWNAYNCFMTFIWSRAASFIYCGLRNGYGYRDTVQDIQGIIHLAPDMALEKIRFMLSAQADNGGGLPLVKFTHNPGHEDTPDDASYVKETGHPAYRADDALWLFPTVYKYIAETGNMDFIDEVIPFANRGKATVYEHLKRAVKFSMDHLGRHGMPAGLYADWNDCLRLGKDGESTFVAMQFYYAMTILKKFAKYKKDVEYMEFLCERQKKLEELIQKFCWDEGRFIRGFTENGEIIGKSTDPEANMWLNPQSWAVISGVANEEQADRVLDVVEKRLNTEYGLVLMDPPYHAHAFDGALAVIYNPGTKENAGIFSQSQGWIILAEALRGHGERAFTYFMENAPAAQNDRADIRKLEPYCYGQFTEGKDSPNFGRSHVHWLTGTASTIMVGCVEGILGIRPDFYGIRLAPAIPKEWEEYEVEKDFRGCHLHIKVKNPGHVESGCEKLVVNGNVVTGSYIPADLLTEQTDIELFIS
Experimental: TLC was used for analyzing enzymatic actions. […] Kinetics parameters for BpGH94MLG were determined with G4G3G, G4G4G3G and cellotriose, following a p-hydroxybenzoic acid hydrazide (PAHBAH) reducing sugar assay ([69]).

[4] = test system: proteome of B. producta; test: Proteomics of B. producta grown on barley β-glucan versus glucose; assay type: cell-based, Blautia producta ATCC 27340; settings: barley β-glucan compared to glucose
Experimental: B. producta ATCC 27340 was anaerobically grown at 37 °C overnight, cells were collected by centrifugation (3000g at room temperature, RT) and washed thrice with 5 ml PBS. […] The strain was grown to the mid-late exponential phase ([…] ∼ 0.5-0.6) in two biological replicates. […] The lysate was centrifuged (15,000g, 15 min at 4 °C), and the supernatant was collected. Procedures for the precipitation of protein, trypsin digestion, and analysis of generated peptides have been mentioned in the Supplementary file. […] Protein quantities were then calculated using Bradford assay. […] Consequently, trypsin digestion of protein was attained by incubating the reaction at 37°C for 16 h using 5 μg trypsin (MS grade, Promega). The next day, the reaction was quenched by adding one volume of 2% (w/v) trifluoroacetic acid, and the obtained peptides were used for mass spectrometry. Analysis of peptides was carried out as reported by Singh et al. (83). Using the manufacturer's protocol, peptides from each replicate of B. producta ATCC 27340 were initially cleaned-up using Oasis HLB 1 cc Vac cartridges (Waters). The […] analysis of each sample was performed on a quadrupole-TOF hybrid mass spectrometer (TripleTOF 6600, SCIEX) coupled to an Eksigent Nano LC-425 system. […] method was created using 93 precursor isolation windows which were defined on the basis of precursor m/z frequencies in DDA run using the SWATH Variable Window Calculator (SCIEX), with a limitation window of 5 m/z. Analysis parameters were optimized before any sample was run. Nebulizer gas and curtain gas were maintained at 20 and 25 psi, respectively.

Q: Barley β-glucan was tested. Which kcat [1] did it give?
A: The kcat was 0 s⁻¹.

Q: And the “overall loss in activity” value ([2]; D381A versus native enzyme)?
A: The value was 1.34 fold.

Q: What about the reduction in kcat ([2]; D381A versus native enzyme) of the same substance?
A: The reduction in kcat was 1.7 fold.

Q: And the Km ([2]; mutant D381A, DNS assay)?
A: Its Km is 0.17 ± 0.04 mg/mL.

Q: What about the kcat ([2]; mutant D381A, DNS assay) of the same substance?
A: The kcat was 35.7 ± 1.1 s⁻¹.

Q: And the “phosphorolysis activity of BpGH94MLG (in words)” value [3]?
A: Its value is “catalyzed phosphorolysis”.

Q: And the “abundance of Bp1313” value [4]?
A: Its value is “approximately 5 fold”.

Q: What about the “abundance of Bp1314” value [4] of the same substance?
A: Its value is ~16 fold.

Q: And the “expression of Bp1317” value [4]?
A: The value was “about 7 fold”.

Q: What about the “expression of Bp1318” value [4] of the same substance?
A: The value was “about 7 fold”.

Q: What about the “up-regulation of Bp3738 (GH18)” value [4] of the same substance?
A: The value was 5.1 fold.

Q: And the “up-regulation of Bp4420 (GH3)” value [4]?
A: Its value is 3.4 fold.

Q: And the “up-regulation of Bp8539 (GH3)” value [4]?
A: The value was 12.4 fold.
